≈ marks a conversion by molar mass, not a printed value. Where two headings read alike, the source gives them in different places.

For data set [1], the target named is T1, recombinant human CD73 (hCD73) (Homo sapiens, UniProt P21589).
T1 sequence (P21589 27-574): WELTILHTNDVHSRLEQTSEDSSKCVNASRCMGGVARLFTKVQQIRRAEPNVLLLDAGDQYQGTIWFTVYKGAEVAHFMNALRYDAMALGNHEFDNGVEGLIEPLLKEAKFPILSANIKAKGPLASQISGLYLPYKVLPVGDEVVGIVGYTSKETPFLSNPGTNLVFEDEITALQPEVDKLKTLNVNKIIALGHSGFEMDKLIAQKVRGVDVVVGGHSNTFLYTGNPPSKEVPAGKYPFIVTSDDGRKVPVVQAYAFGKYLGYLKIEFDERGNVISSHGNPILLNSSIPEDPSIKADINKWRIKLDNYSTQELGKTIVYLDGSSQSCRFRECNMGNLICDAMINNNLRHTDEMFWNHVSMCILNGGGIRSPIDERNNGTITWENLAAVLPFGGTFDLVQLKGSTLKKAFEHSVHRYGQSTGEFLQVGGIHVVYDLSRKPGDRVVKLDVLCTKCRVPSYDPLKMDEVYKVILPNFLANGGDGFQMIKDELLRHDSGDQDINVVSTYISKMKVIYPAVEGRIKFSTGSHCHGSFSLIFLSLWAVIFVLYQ
Nature of the data set: CD73 activity assay on recombinant human CD73. It counts as biochemical. The conditions noted are these: ΔGexp = RT ln Ki.

Data set [2] can be described thus: In vivo pharmacokinetic study, intravenous. Details: species or system male CD-1 mice. Particulars: plasma, 1 mg/kg; for half-life: footnote: t1/2 stability in plasma, text: half-life in mouse PK. As for the experimental part:
The pharmacokinetic study was performed by Bienta (Enamine Biology Services) using male CD-1 mice (3 animals, 9 weeks old, body weight ranging from 29.2 to 33.7 g) following intravenous administration. Levels of the test compound were determined by LC-MS/MS in blood plasma over time (seven sampling time points: 5, 15, 30, 60, 120, 240, and 480 min) after a single dose.
Animal treatment and samples preparation were conducted by the Animal Laboratory personnel at Enamine/Bienta.

A short description of data set [3]: Plasma protein binding, equilibrium dialysis, human plasma. It counts as in vitro ADME. Particulars: undiluted plasma. (In general: In equilibrium dialysis free small molecules cross a membrane that holds back macromolecules.)
The nature of data set [4]: Plasma protein binding, mouse plasma. It counts as in vitro ADME. Particulars: mouse, plasma.
Data set [5] in a line: Kinetic solubility in PBS. Particulars: phosphate-buffered saline, pH 7.4, aqueous buffer, kinetic from dmso stock. It counts as physicochemical. The essentials: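 Echo-MS quantitation with calibration from 0.05 to 4 μM, after 1:99 dilution of filtrate into 50% acetonitrile. Filtrate came from a 100 μM PBS (pH 7.4) solution equilibrated 2 h at room temperature with shaking, in duplicate.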

The nature of data set [6]: Microsomal stability assay, human liver microsomes. Particulars: for Mics (hu) comp remaining 60 min: 10 μM; for microsomal CLint at 10 µM: pooled liver microsomes, pH 7.4, read-out: Mics (hu) CLint. It counts as in vitro ADME. A general note: Liver microsomes are vesicles of endoplasmic reticulum, rich in cytochrome P450 enzymes.
Data set [7] is described as follows: Microsomal stability assay, mouse liver microsomes. Particulars: for Mics (m) comp remaining 60 min: 10 μM; for microsomal CLint at 10 µM: pooled liver microsomes, pH 7.4, read-out: Mics (m) CLint. It counts as in vitro ADME.
Data set [8] concerns CCRF-CEM. Nature of the data set: In vitro cytotoxic activity. It counts as cell-based. Particulars: Homo sapiens. As for the experimental part:
(§1) All the compounds were also tested for their in vitro cytotoxic activity on a small panel of four cancer cell lines (CCRF-CEM, HepG2, HeLa S3, HL-60) and nonmalignant human dermal fibroblasts (NHDF).

For data set [9], the system named is HL-60. Nature of the data set: In vitro cytotoxic activity. Particulars: Homo sapiens. It counts as cell-based. As for the experimental part: as §1
Data set [10] deals with HeLa S3. Nature of the data set: In vitro cytotoxic activity. It counts as cell-based. Particulars: Homo sapiens. As for the experimental part: as §1
For data set [11], the system named is HepG2. Nature of the data set: In vitro cytotoxic activity. It counts as cell-based. Particulars: Homo sapiens. How it is done:
as §1

For data set [12], the system named is nonmalignant human dermal fibroblasts (NHDF). Nature of the data set: In vitro cytotoxic activity. It counts as cell-based. As for the experimental part: as §1
Data set [13] is described as follows: in vitro. Particulars: human, plasma.
The nature of data set [14]: in vitro. The conditions noted are these: mouse, plasma.
[15] abbreviates: male, CD-1, mouse, iv, intravenous.
[16] abbreviates: human plasma protein binding, read-out: PPB (hu) (converted).
[17] abbreviates: mouse plasma protein binding, read-out: PPB (m) (converted).
The mark [18] stands for this setting: mouse, male CD-1 mice, intravenous, single dose, read-out: Cl (obs), observed clearance.
The mark [19] stands for this setting: Tables 2 and 4, mouse plasma, read-out: fup, fraction unbound in mouse plasma.

Turning to `O=P(O)(O)CP(=O)(O)OC[C@H]1O[C@@H](n2ccc3c(-c4cccc5c4CCCC5)ncnc32)[C@H](O)[C@@H]1O` [4A.12], the “dG_exp, experimental binding free energy” value in [1] was “–15.1 kcal/mol”. The half-life – broadly, how long it takes for the measured level to halve – in [2] (setting [15]) came out at 2.17 h. The clearance (as a rule, a measure of how efficiently the substance is removed, as volume per time) in data set [2] (male, CD-1, mouse, iv, in vivo PK in mice, unit inferred, read-out: clearance) came out at 2.1 mL/min/kg. Besides, the fraction unbound at 4 h, 100 µM in data set [3] (Tables 1 and 3, human plasma as printed in footnote, read-out: fup, fraction unbound in human plasma) is 0.38; in data set [3] (setting [16]) it was 0.073; in data set [4] (setting [17]), 0.381. Moreover, in data set [5], the solubility (as a rule, how much of the substance goes into solution per volume) at 2 h came to 94 µM (≈ 50.7 µg/mL). Further, the “Mics (hu) comp remaining 60 min” value in data set [6] was 96%. The microsomal CLint at 10 µM in data set [6] was 1 µL/min/mg; in data set [7], below 1 µL/min/mg. In addition, the “Mics (m) comp remaining 60 min” value in data set [7] amounted to 100%. Besides, the half-inhibitory concentration (IC50) in [8], in data set [9], in [10], in data set [11] and in data set [12] was above 10 µM each time. For the same molecule, the half-life at 10 µM in data set [13] and in data set [14] was above 2 h in each case.
As to `O=P(O)(O)CP(=O)(O)OC[C@H]1O[C@@H](n2ccc3c(-c4cc5ccccc5o4)nc(Cl)nc32)[C@H](O)[C@@H]1O` [7B.8], in [1], the “dG_exp, experimental binding free energy” value is recorded as “–16.0 kcal/mol”. For the same molecule, the half-life in [2] (setting [15]) amounted to 0.142 h. Further, the clearance in [2] (setting [18]) amounted to 8.8 mL/min/kg. The fraction unbound at 4 h, 100 µM in [3] (setting [16]) is 0.033; in data set [4] (setting [19]), 0.19; in [4] (setting [17]) it was 0.187. Besides, the solubility at 2 h in [5] came to 87 µM (≈ 48.7 µg/mL). Further, the “Mics (hu) comp remaining 60 min” value in data set [6] is listed as 98%. The microsomal CLint at 10 µM was 1 µL/min/mg in data set [6] and below 1 µL/min/mg in [7]. Moreover, the “Mics (m) comp remaining 60 min” value in data set [7] was 109%. Also, the IC50 (commonly the concentration needed to halve the response being measured) in [8] was above 10 µM; in data set [9], 6 µM; in data set [10] it was above 10 µM; in [11] it was above 10 µM; in data set [12], above 10 µM. Besides, the half-life at 10 µM in [13] and in data set [14] was above 2 h each time.
As to `Cc1nc(-c2cc3ccccc3o2)c2ccn([C@@H]3O[C@H](COP(=O)(O)CP(=O)(O)O)[C@@H](O)[C@H]3O)c2n1` [18E.8], in data set [1], the “dG_exp, experimental binding free energy” value is listed as “–14.7 kcal/mol”. In [2] (setting [15]), this molecule registered a half-life of 0.25 h. The clearance in data set [2] (setting [18]) was 7.4 mL/min/kg. For the same molecule, the values for the fraction unbound at 4 h, 100 µM in data set [3] (setting [16]), in data set [4] (setting [19]) and in data set [4] (setting [17]) were 0.026, 0.3 and 0.302, respectively. The molecule further showed a solubility at 2 h in data set [5] of 86 µM (≈ 46.4 µg/mL). In data set [6], the “Mics (hu) comp remaining 60 min” value turned out to be 95%. In addition, the microsomal CLint at 10 µM in [6] was 2 µL/min/mg; in data set [7], below 1 µL/min/mg. The “Mics (m) comp remaining 60 min” value in data set [7] is recorded as 103%. For the same molecule, the 50% inhibitory concentration (IC50) in [8], in data set [9], in data set [10], in data set [11] and in data set [12] was above 10 µM each time. The half-life at 10 µM in [13] and in data set [14] was above 2 h throughout.
With `O=P(O)(O)CP(=O)(O)OC[C@H]1O[C@@H](n2ccc3c(-c4cccc5ccccc45)nc(F)nc32)[C@H](O)[C@@H]1O` [14D.6], the “dG_exp, experimental binding free energy” value in data set [1] is recorded as “–14.4 kcal/mol”. Further, in data set [2] (setting [15]), the half-life stood at 2.3 h. Moreover, the clearance in data set [2] (setting [18]) is 1.3 mL/min/kg. Besides, the results for the fraction unbound at 4 h, 100 µM in data set [3] (setting [16]) and in data set [4] (setting [19]) were 0.033 and 0.42, respectively. This molecule returned a solubility at 2 h in data set [5] of 89 µM (≈ 49.3 µg/mL). The “Mics (hu) comp remaining 60 min” value in [6] amounted to 100%. Further, the microsomal CLint at 10 µM in [6] and in [7] was below 1 µL/min/mg in each case. The “Mics (m) comp remaining 60 min” value in data set [7] stood at 111%. Besides, the IC50 in [8], in data set [9], in [10], in data set [11] and in data set [12] was above 10 µM in each case. The half-life at 10 µM in [13] and in [14] was above 2 h throughout.
With `O=P(O)(O)CP(=O)(O)OC[C@H]1O[C@@H](n2ccc3c(-c4ccc5ccccc5c4)nc(Cl)nc32)[C@H](O)[C@@H]1O` [7B.7], in data set [1], the “dG_exp, experimental binding free energy” value is listed as “–15.9 kcal/mol”. In addition, the half-life in [2] (setting [15]) turned out to be 0.122 h. For the same molecule, the clearance in data set [2] (setting [18]) stood at 8.3 mL/min/kg. The fraction unbound at 4 h, 100 µM in data set [3] (setting [16]) is 0.033; in [4] (setting [19]), 0.11; in data set [4] (setting [17]) it was 0.112. For the same molecule, in data set [5], the solubility at 2 h is 84 µM (≈ 47.9 µg/mL). For the same molecule, the “Mics (hu) comp remaining 60 min” value in data set [6] is recorded as 111%. Further, the microsomal CLint at 10 µM in [6] and in [7] was below 1 µL/min/mg throughout. In [7], the “Mics (m) comp remaining 60 min” value was found to be 106%. Besides, the IC50 in [8], in data set [9], in data set [10], in [11] and in data set [12] was above 10 µM in each case. Also, the half-life at 10 µM in data set [13] and in data set [14] was above 2 h in each case.
On to `O=P(O)(O)CP(=O)(O)OC[C@H]1O[C@@H](n2ccc3c(-c4ccc5cc(F)ccc5c4)nc(Cl)nc32)[C@H](O)[C@@H]1O` [7B.25], for which the “dG_exp, experimental binding free energy” value in data set [1] was “–15.4 kcal/mol”. The molecule also showed a half-life in data set [2] (setting [15]) of 0.283 h. In addition, the clearance in data set [2] (setting [18]) was found to be 5.9 mL/min/kg. The values for the fraction unbound at 4 h, 100 µM in [3] (setting [16]), in data set [4] (setting [19]) and in data set [4] (setting [17]) were at most 0.01, 0.08 and 0.079, respectively. In data set [5], this molecule displayed a solubility at 2 h above 100 µM. Further, in data set [6], the “Mics (hu) comp remaining 60 min” value came to 108%. The microsomal CLint at 10 µM in data set [6] and in data set [7] was below 2 µL/min/mg in each case. Further, in data set [7], the “Mics (m) comp remaining 60 min” value was 109%. The IC50 in data set [8], in data set [9], in data set [10], in data set [11] and in data set [12] was above 10 µM each time. In addition, the half-life at 10 µM in data set [13] and in [14] was above 2 h throughout.
On to `O=P(O)(O)CP(=O)(O)OC[C@H]1O[C@@H](n2ccc3c(-c4ccc5cc(O)ccc5c4)nc(Cl)nc32)[C@H](O)[C@@H]1O` [7B.32], for which, in [1], the “dG_exp, experimental binding free energy” value is reported as “–15.8 kcal/mol”. Besides, the half-life in data set [2] (setting [15]) turned out to be 0.113 h. Further, the clearance in data set [2] (setting [18]) amounted to 11 mL/min/kg. The fraction unbound at 4 h, 100 µM in data set [3] (setting [16]) is 0.084; in data set [4] (setting [19]), 0.2; in data set [4] (setting [17]), 0.198. The molecule further yielded a solubility at 2 h in [5] above 100 µM. For the same molecule, in data set [6], the “Mics (hu) comp remaining 60 min” value worked out at 104%. In addition, the microsomal CLint at 10 µM in data set [6] and in data set [7] was below 2 µL/min/mg each time. In addition, the “Mics (m) comp remaining 60 min” value in [7] came to 111%. In addition, the half-inhibitory concentration (IC50) in data set [8], in [9], in [10], in [11] and in data set [12] was above 10 µM in each case. The half-life at 10 µM in data set [13] and in [14] was above 2 h throughout.

(Values after publication PMC12797170, “Potent Competitive Inhibitors of Ecto-5′-nucleotidase (CD73) based on 6‑(Het)aryl-7-deazapurine Ribonucleoside 5′‑O‑Bisphosphonates” (ACS Pharmacology & Translational Science, 2025).)
